Assay results: patent US4764522A, “Ethylenediamine monoamides” (Hoffmann-La Roche Inc., priority 1984, dated 1988)
Counter-ions that a name gives are not always drawn. Like-named read-outs stand apart in the source and are kept apart here.

What was measured:
monoamine oxidase (MAO) = target: T1, monoamine oxidase (MAO) (Rattus norvegicus, UniProt P19643); experiment: MAO inhibiting activity measured in homogenates of the brain two hours after p.o. administration to rats (phenethylamine as substrate); type: in vivo; details: po, read-out: ED50 (MAO inhibiting activity)
T1 construct: from tissue; host or cells: rat brain homogenate (ex vivo, two hours after p.o. dosing)
T1 sequence (P19643 1-520): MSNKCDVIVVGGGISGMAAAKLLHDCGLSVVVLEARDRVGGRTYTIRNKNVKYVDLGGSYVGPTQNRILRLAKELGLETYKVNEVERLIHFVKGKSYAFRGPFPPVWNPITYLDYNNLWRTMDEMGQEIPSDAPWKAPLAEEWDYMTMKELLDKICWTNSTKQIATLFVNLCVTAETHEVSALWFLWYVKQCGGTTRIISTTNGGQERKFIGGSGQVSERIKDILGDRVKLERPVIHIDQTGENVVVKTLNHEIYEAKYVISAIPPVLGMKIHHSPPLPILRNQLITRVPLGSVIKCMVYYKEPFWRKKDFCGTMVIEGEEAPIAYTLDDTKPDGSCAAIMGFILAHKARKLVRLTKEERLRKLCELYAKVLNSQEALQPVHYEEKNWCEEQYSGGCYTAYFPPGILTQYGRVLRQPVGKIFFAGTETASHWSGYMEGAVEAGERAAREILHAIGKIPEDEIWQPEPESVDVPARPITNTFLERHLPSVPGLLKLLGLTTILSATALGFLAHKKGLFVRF
Description: The MAO inhibiting activity of the compounds in accordance with the invention can be determined using standard methods. Thus, the substances to be tested were administered p.o. to rats.

[1] = toxicity (LD50), p.o. in the mouse; details: in vivo, po
Description: The MAO inhibiting activity of the compounds in accordance with the invention can be determined using standard methods. Thus, the substances to be tested were administered p.o. to rats. Two hours thereafter the animals were killed and the MAO inhibiting activity was measured in homogenates of the brain according to the method described in Biochem. Pharmacol. 12 (1963) 1439-1441, but using phenethylamine (2.10^-5 mol.1^-1) in place of tyramine as the substrate. The thus-determined activity of some compounds in accordance with the invention as well as their toxicity are evident from the following ED50 values (μmol/kg, p.o. in the rat) and LD50 values (mg/kg, p.o. in the mouse), respectively: […]

NCCNC(=O)c1cccc(Cl)n1 [N-(2-aminoethy)-6-chloropyridine-2-carboxamide hydrochloride]
ED50 (monoamine oxidase (MAO); p.o. in the rat, brain homogenates 2 hours after administration, substrate phenethylamine 2.10^-5 mol.1^-1): 10 µmol/kg
LD50 [1]: 625 to 1250 mg/kg

Cl.NCCNC(=O)c1csc(Cl)n1 [N-(2-aminoethyl)-2-chlorothiazole-4-carboxamide hydrochloride]
ED50 (monoamine oxidase (MAO); rat, 2 h): 6 µmol/kg
LD50 [1]: 2500 to 5000 mg/kg

Cl.Cl.NCCNC(=O)c1ncccc1N [N-(2-aminoethyl)-3-aminopyridine-2-carboxamide dihydrochloride]
ED50 (monoamine oxidase (MAO); rat, 2 h): 5 µmol/kg
LD50 [1]: 2500 to 5000 mg/kg

Cl.NCCNC(=O)c1cc(Br)ccn1 [N-(2-aminoethyl)-4-bromopyridine-2-carboxamide hydrochloride]
ED50 (monoamine oxidase (MAO); rat, 2 h): 4 µmol/kg
LD50 [1]: 1000 to 2000 mg/kg

Cl.NCCNC(=O)c1cc(Cl)ccn1 [N-(2-aminoethyl)-4-chloropyridine-2-carboxamide hydrochloride]
ED50 (monoamine oxidase (MAO); rat, 2 h): 5 µmol/kg
LD50 [1]: 1250 to 2500 mg/kg

Cl.NCCNC(=O)c1ncsc1Br [N-(2-aminoethyl)-5-bromothiazole-4-carboxamide hydrochloride]
ED50 (monoamine oxidase (MAO); rat, 2 h): 10 µmol/kg
LD50 [1]: 1250 to 2500 mg/kg

Cl.NCCNC(=O)c1ccc(Cl)cn1 [N-(2-aminoethyl)-5-chloropyridine-2-carboxamide hydrochloride]
LD50 [1]: 1000 to 2000 mg/kg

Cc1cc(C(=O)NCCN)no1.Cl [N-(2-aminoethyl)-5-methylisoxazole-3-carboxamide hydrochloride]
ED50 (monoamine oxidase (MAO); rat, 2 h): 20 µmol/kg
LD50 [1]: > 4000 mg/kg

Cl.NCCNC(=O)c1cccc(Br)n1 [N-(2-aminoethyl)-6-bromopyridine-2-carboxamide hydrochloride]
ED50 (monoamine oxidase (MAO); rat, 2 h): 8 µmol/kg
LD50 [1]: 1000 to 2000 mg/kg

Cl.Cl.NCCNC(=O)c1ccccn1 [N-(2-aminoethyl)-pyridine-2-carboxamide dihydrochloride]
ED50 (monoamine oxidase (MAO); rat, 2 h): 1.7 µmol/kg
LD50 [1]: > 4000 mg/kg
